Results on twelve compounds are retold here after ChEMBL document CHEMBL4219036, “Design and multi-step synthesis of chalcone-polyamine conjugates as potent antiproliferative agents” (Bioorg Med Chem Lett, 2017).

Data set [1] is described as follows: 1-octanol/water partition coefficient, log P of the compound at 300 uM by UV-Vis spectrophotometric analysis. Format: physicochemical.
Another data set has as its system HT-29. Briefly: Antiproliferative activity against human HT-29 cells after 48 hrs by MTT assay. The format is functional, cell-based. Particulars: HT-29, 48 h.
The next data set relates to HCT-116. Briefly: Antiproliferative activity against human HCT116 cells after 48 hrs by MTT assay. The format is functional, cell-based. Particulars: HCT-116, 48 h.
Another data set relates to PC-3. Briefly: Antiproliferative activity against human PC3 cells after 48 hrs by MTT assay. The note with it: PC-3, 48 h. Format: functional, cell-based.
A further data set relates to DU-145. Description: Antiproliferative activity against human DU145 cells after 48 hrs by MTT assay. The format is functional, cell-based. The note with it: DU-145, 48 h.

With `COc1ccc(/C=C/C(=O)c2cc(OC)c(OC)c(OC)c2)cc1`, the logP at 300 µM in data set [1] is 3.1. Besides, the IC50 worked out at 7.4 µM in the data set with HT-29, 10.7 µM in the data set on HCT-116, 7.8 µM with PC-3 and 13.8 µM in the data set on DU-145.
For the compound `COc1ccc(/C=C/C(=O)c2cc(OC)c(OC)c(OC)c2)cc1OCCCC(=O)NCCCCN(CCCN)CCCCNCCCN`, the IC50 was 89.1 µM in the data set on HT-29, 29.5 µM with HCT-116, 48.1 µM in the data set with PC-3 and 84.9 µM with DU-145.
The like results for `COc1cc(C(=O)/C=C/c2ccc(OCCCC(=O)NCCCCNCCCN)cc2)cc(OC)c1OC` were, in that order, over 100 µM, 20 µM, 79.3 µM and 54.8 µM.
`COc1ccc(/C=C/C(=O)c2cc(OC)c(OC)c(OC)c2)cc1OCCCC(=O)NCCCNCCCCNCCN` showed a lipophilicity (logP) at 300 µM in data set [1] of -1.57. Moreover, the IC50 is over 100 µM in the data set on HT-29, 55.8 µM in the data set on HCT-116, 31.8 µM with PC-3 and 28.5 µM with DU-145.
The like results for `COc1cc(C(=O)/C=C/c2ccc(OCCCC(=O)NCCCNCCCCN)cc2)cc(OC)c1OC` were, in that order, -1.43, over 100 µM, over 100 µM, over 100 µM and over 100 µM.
Take `COc1cc(C(=O)/C=C/c2ccc(OCCCC(=O)NCCCCN(CCCN)CCCCNCCCN)cc2)cc(OC)c1OC`: the IC50 amounted to 91.7 µM in the data set with HT-29, 75.4 µM in the data set on HCT-116, 81.6 µM in the data set with PC-3 and 92.5 µM with DU-145.
Regarding `COc1cc(C(=O)/C=C/c2ccc(OCCCC(=O)NCCCNCCCCNCCN)cc2)cc(OC)c1OC`, in data set [1], the logP at 300 µM is -1.98. For the same compound, the IC50 stood at 98 µM in the data set on HT-29, 33.8 µM in the data set with HCT-116, 34 µM with PC-3 and 35.4 µM with DU-145.
As for `COc1ccc(/C=C/C(=O)c2cc(OC)c(OC)c(OC)c2)cc1OCCCC(=O)NCCCNCCCCN`, the IC50 in the data set on HT-29 is over 100 µM; in the data set on HCT-116, over 100 µM; in the data set on PC-3 it was 81 µM; in the data set on DU-145, over 100 µM.
Take `COc1ccc(/C=C/C(=O)c2cc(OC)c(OC)c(OC)c2)cc1OCCCC(=O)NCCCCNCCCN`: the logP at 300 µM in data set [1] is -1.28. In addition, the IC50 in the data set with HT-29 was over 100 µM; in the data set on HCT-116, 38 µM; with PC-3, 51 µM; in the data set on DU-145, 99.3 µM.
`COc1ccc(/C=C/C(=O)c2cc(OC)c(OC)c(OC)c2)cc1OCCCC(=O)NCCCCN(CCCN)CCCCN`: the IC50 is 74.7 µM in the data set on HT-29, 73.6 µM with HCT-116, 60.6 µM with PC-3 and 82.3 µM with DU-145.
On to `COc1cc(C(=O)/C=C/c2ccc(OCCCC(=O)NCCCCN(CCCN)CCCCN)cc2)cc(OC)c1OC`, for which the IC50 in the data set on HT-29 came to 87.2 µM; with HCT-116, 29.2 µM; in the data set with PC-3, 55.4 µM; with DU-145, 86.8 µM.
The compound `COc1ccc(/C=C/C(=O)c2cc(OC)c(OC)c(OC)c2)cc1O` showed a logP at 300 µM in data set [1] of 2.99. For the same compound, the IC50 came out at 23.1 µM in the data set on HT-29, 0.85 µM in the data set with HCT-116, 0.09 µM in the data set with PC-3 and 6.3 µM in the data set on DU-145.
